# Measured values taken from PubChem BioAssay AID1259407 (Chemical Carcinogenesis Research Information System (CCRIS), 2018).
# Active and inactive are the calls of the source. The rule behind the calls is not given here.
# Tested on: CCRIS mutagenicity, Ames/micronucleus/aberration tests
# Experiment: CCRIS mutagenicity studies
# [1] = Test System: AMES SALMONELLA TYPHIMURIUM, Strain/Indicator: TA98, Metabolic Activation: NONE, Method: PREINCUBATION
# [2] = Test System: AMES SALMONELLA TYPHIMURIUM, Strain/Indicator: TA100, Metabolic Activation: NONE, Method: PREINCUBATION
# [3] = Test System: AMES SALMONELLA TYPHIMURIUM, Strain/Indicator: TA100, Metabolic Activation: NONE, Method: STANDARD PLATE
# [4] = Test System: AMES SALMONELLA TYPHIMURIUM, Strain/Indicator: TA1535, Metabolic Activation: NONE, Method: PREINCUBATION
# [5] = Test System: AMES SALMONELLA TYPHIMURIUM, Strain/Indicator: TA1537, Metabolic Activation: NONE, Method: PREINCUBATION
structure (smiles),measurement,setting,value
O=C1c2ccccc2C(=O)c2c(O)ccc(O)c21,mutagenic call,"End Point: IN VITRO CHROMOSOMAL ABERRATIONS, Test System: CHL CELLS, Metabolic Activation: NONE",active; positive (structural changes); authors report equivocal results for ploidy chang
same,mutagenic call,[1],inactive; negative
same,mutagenic call,"Test System: AMES SALMONELLA TYPHIMURIUM, Strain/Indicator: TA98, Metabolic Activation: RAT LIVER S-9, PHENOBARBITAL AND BETA-NAPHTHOFLAVONE, Method: PREINCUBATION",inactive; negative
same,mutagenic call,"Test System: AMES SALMONELLA TYPHIMURIUM, Strain/Indicator: TA98, Metabolic Activation: RAT, LIVER, S-9, AROCLOR 1254, Method: STANDARD PLATE",inactive; negative
same,mutagenic call,"Test System: AMES SALMONELLA TYPHIMURIUM, Strain/Indicator: TA98, Metabolic Activation: RAT, LIVER, S-9, PCB, Method: PREINCUBATION",inactive; negative
same,mutagenic call,[2],inactive; negative
same,mutagenic call,[3],inactive; negative
same,mutagenic call,"Test System: AMES SALMONELLA TYPHIMURIUM, Strain/Indicator: TA100, Metabolic Activation: RAT LIVER S-9, PHENOBARBITAL AND BETA-NAPHTHOFLAVONE, Method: PREINCUBATION",inactive; negative
same,mutagenic call,"Test System: AMES SALMONELLA TYPHIMURIUM, Strain/Indicator: TA100, Metabolic Activation: RAT, LIVER, S-9, AROCLOR 1254, Method: STANDARD PLATE",inactive; negative
same,mutagenic call,"Test System: AMES SALMONELLA TYPHIMURIUM, Strain/Indicator: TA100, Metabolic Activation: RAT, LIVER, S-9, PCB, Method: PREINCUBATION",inactive; negative
same,mutagenic call,"Test System: AMES SALMONELLA TYPHIMURIUM, Strain/Indicator: TA102, Metabolic Activation: NONE, Method: PREINCUBATION",active; positive
same,mutagenic call,"Test System: AMES SALMONELLA TYPHIMURIUM, Strain/Indicator: TA102, Metabolic Activation: RAT, LIVER, S-9, Method: PREINCUBATION",active; positive
same,mutagenic call,[4],inactive; negative
same,mutagenic call,"Test System: AMES SALMONELLA TYPHIMURIUM, Strain/Indicator: TA1535, Metabolic Activation: NONE, Method: STANDARD PLATE",inactive; negative
same,mutagenic call,"Test System: AMES SALMONELLA TYPHIMURIUM, Strain/Indicator: TA1535, Metabolic Activation: RAT LIVER S-9, PHENOBARBITAL AND BETA-NAPHTHOFLAVONE, Method: PREINCUBATION",inactive; negative
same,mutagenic call,"Test System: AMES SALMONELLA TYPHIMURIUM, Strain/Indicator: TA1535, Metabolic Activation: RAT, LIVER, S-9, AROCLOR 1254, Method: STANDARD PLATE",inactive; negative
same,mutagenic call,[5],active; positive
same,mutagenic call,"Test System: AMES SALMONELLA TYPHIMURIUM, Strain/Indicator: TA1537, Metabolic Activation: NONE, Method: STANDARD PLATE",active; positive
same,mutagenic call,"Test System: AMES SALMONELLA TYPHIMURIUM, Strain/Indicator: TA1537, Metabolic Activation: RAT LIVER S-9, PHENOBARBITAL AND BETA-NAPHTHOFLAVONE, Method: PREINCUBATION",active; positive
same,mutagenic call,"Test System: AMES SALMONELLA TYPHIMURIUM, Strain/Indicator: TA1537, Metabolic Activation: RAT, LIVER, S-9, AROCLOR 1254, Method: STANDARD PLATE",active; positive
same,mutagenic call,"Test System: AMES SALMONELLA TYPHIMURIUM, Strain/Indicator: TA1538, Metabolic Activation: NONE, Method: STANDARD PLATE",inactive; negative
same,mutagenic call,"Test System: AMES SALMONELLA TYPHIMURIUM, Strain/Indicator: TA1538, Metabolic Activation: RAT, LIVER, S-9, AROCLOR 1254, Method: STANDARD PLATE",inactive; negative
same,mutagenic call,"Test System: E.COLI, Strain/Indicator: WP2UVRA, Metabolic Activation: NONE, Method: PREINCUBATION",inactive; negative
same,mutagenic call,"Test System: E.COLI, Strain/Indicator: WP2UVRA, Metabolic Activation: RAT LIVER S-9, PHENOBARBITAL AND BETA-NAPHTHOFLAVONE, Method: PREINCUBATION",inactive; negative
CCc1c2ccccc2cc2c1c1c(c3ccccc32)N1,mutagenic call,[1],active; positive
O=CN(O)c1ccc(Oc2ccccc2)cc1,mutagenic call,[3],inactive; negative
same,mutagenic call,"Test System: AMES SALMONELLA TYPHIMURIUM, Strain/Indicator: TA100, Metabolic Activation: RAT, LIVER, S-9, KANECLOR 500, Method: STANDARD PLATE",active; positive
COC(=O)C1=C(C)NC(C)=C(C(=O)OCC(C)=O)C1c1ccccc1[N+](=O)[O-] (stereo unspecified),mutagenic call,[1],inactive; negative
same,mutagenic call,"Test System: AMES SALMONELLA TYPHIMURIUM, Strain/Indicator: TA98, Metabolic Activation: S-9, Method: PREINCUBATION",inactive; negative
same,mutagenic call,[2],inactive; negative
same,mutagenic call,"Test System: AMES SALMONELLA TYPHIMURIUM, Strain/Indicator: TA100, Metabolic Activation: S-9, Method: PREINCUBATION",inactive; negative
same,mutagenic call,[4],inactive; negative
same,mutagenic call,"Test System: AMES SALMONELLA TYPHIMURIUM, Strain/Indicator: TA1535, Metabolic Activation: S-9, Method: PREINCUBATION",inactive; negative
same,mutagenic call,[5],inactive; negative
same,mutagenic call,"Test System: AMES SALMONELLA TYPHIMURIUM, Strain/Indicator: TA1537, Metabolic Activation: S-9, Method: PREINCUBATION",inactive; negative
same,mutagenic call,"Test System: E.COLI, Strain/Indicator: WP2 UVRA, Metabolic Activation: NONE, Method: PREINCUBATION",inactive; negative
same,mutagenic call,"Test System: E.COLI, Strain/Indicator: WP2 UVRA, Metabolic Activation: S-9, Method: PREINCUBATION",inactive; negative
COc1ccc(-c2nc(-c3ccc(OC)cc3)c(-c3ccc(OC)cc3)[nH]2)cc1,mutagenic call,"Test System: AMES SALMONELLA TYPHIMURIUM, Strain/Indicator: TA98, Metabolic Activation: NONE, Method: STANDARD PLATE",active; positive
same,mutagenic call,"Test System: AMES SALMONELLA TYPHIMURIUM, Strain/Indicator: TA98, Metabolic Activation: RAT LIVER S-9, 3-METHYLCHOLANTHRENE, SODIUM PHENOBARBITAL, Method: STANDARD PLATE",inactive; negative
same,mutagenic call,[3],inactive; negative
same,mutagenic call,"Test System: AMES SALMONELLA TYPHIMURIUM, Strain/Indicator: TA100, Metabolic Activation: RAT LIVER S-9, 3-METHYLCHOLANTHRENE, SODIUM PHENOBARBITAL, Method: STANDARD PLATE",inactive; negative
